Experimental data as given in patent US12077503B2, “Substituted cyclic amides and their use as herbicides” (FMC CORPORATION, priority 2015, dated 2024).

Columns and labels:
Format in all cases: in vivo
[1] = system: velvetleaf (Abutilon theophrasti); test: Test G Pre-Emergence Protocol; conditions: Abutilon theophrasti, pre-emergence, 312 h, evaluated after 13 days; for pest or weed control at 15.625 g/ha: 15.625 g ai/ha; for pest or weed control at 15.625 g/ha / pest or weed control at 250 g/ha: read-out: Velvetleaf damage rating (100=total damage to plant; 0=no damage to plant); for pest or weed control at 62.5 g/ha: 62.5 g ai/ha, 100=total damage to plant, 0=no damage to plant, read-out: plant damage rating, Velvetleaf; for pest or weed control at 250 g/ha: 250 g ai/ha
Experimental: (§1) Seeds of corn (Zea mays), giant foxtail (Setaria faberi), barnyardgrass (Echinochloa crus-galli), ivy-leaved morning glory (Ipomoea hederacea), redroot pigweed (Amaranthus retroflexus) and velvetleaf (Abutilon theophrasti) were sown in standard soil in pots. After cultivation for one day under controlled conditions in a glasshouse (at 24/16° C., day/night; 14 hours light; 65% humidity), the plants were sprayed with an aqueous spray solution derived from the formulation of the technical active ingredient in acetone/water (50:50) solution containing 0.5% Tween 20 (polyoxyethylene sorbitan monolaurate, CAS RN 9005-64-5) to give a final dose of 15.625, 62.5 or 250 g/ha of test compound.
(§2) The test plants were then grown on under controlled conditions in a glasshouse (at 24/16° C., day/night; 14 hours light; 65% humidity) and watered twice daily. After 13 days the test was evaluated (100=total damage to plant; 0=no damage to plant). A dash (-) means no test result.

[2] = system: redroot pigweed (Amaranthus retroflexus); test: Test G Pre-Emergence Protocol; conditions: Amaranthus retroflexus, pre-emergence, 312 h, evaluated after 13 days; for pest or weed control at 15.625 g/ha: 15.625 g ai/ha; for pest or weed control at 15.625 g/ha / pest or weed control at 250 g/ha: read-out: Pigweed, Redroot damage rating (100=total damage to plant; 0=no damage to plant); for pest or weed control at 62.5 g/ha: 62.5 g ai/ha, 100=total damage to plant, 0=no damage to plant, read-out: plant damage rating, Pigweed, Redroot; for pest or weed control at 250 g/ha: 250 g ai/ha
Experimental: as §1, §2

[3] = system: barnyardgrass (Echinochloa crus-galli); test: Test G Pre-Emergence Protocol; conditions: Echinochloa crus-galli, pre-emergence, 312 h, evaluated after 13 days; for pest or weed control at 15.625 g/ha: 15.625 g ai/ha, read-out: Barnyard grass damage rating (100=total damage to plant; 0=no damage to plant); for pest or weed control at 62.5 g/ha: 62.5 g ai/ha, 100=total damage to plant, 0=no damage to plant, read-out: plant damage rating, Barnyardgrass; for pest or weed control at 250 g/ha: 250 g ai/ha, read-out: Barnyardgrass damage rating (100=total damage to plant; 0=no damage to plant)
Experimental: as §1, §2

corn (Zea mays) [4] = test: Test G Pre-Emergence Protocol; conditions: Zea mays, pre-emergence, 312 h, evaluated after 13 days; for plant injury at 15.625 g/ha: 15.625 g ai/ha; for plant injury at 15.625 g/ha / plant injury at 250 g/ha: read-out: Corn damage rating (100=total damage to plant; 0=no damage to plant); for plant injury at 62.5 g/ha: 62.5 g ai/ha, 100=total damage to plant, 0=no damage to plant, read-out: plant damage rating, Corn; for plant injury at 250 g/ha: 250 g ai/ha
Experimental: as §1, §2

[5] = system: giant foxtail (Setaria faberi); test: Test G Pre-Emergence Protocol; conditions: Setaria faberi, pre-emergence, 312 h, evaluated after 13 days; for pest or weed control at 15.625 g/ha: 15.625 g ai/ha; for pest or weed control at 15.625 g/ha / pest or weed control at 250 g/ha: read-out: Foxtail, Giant damage rating (100=total damage to plant; 0=no damage to plant); for pest or weed control at 62.5 g/ha: 62.5 g ai/ha, 100=total damage to plant, 0=no damage to plant, read-out: plant damage rating, Foxtail, Giant; for pest or weed control at 250 g/ha: 250 g ai/ha
Experimental: as §1, §2

[6] = system: ivy-leaved morning glory (Ipomoea hederacea); test: Test G Pre-Emergence Protocol; conditions: Ipomoea, pre-emergence, 312 h, evaluated after 13 days; for pest or weed control at 15.625 g/ha: 15.625 g ai/ha, read-out: Morning-glory, Ivy-leaved damage rating (100=total damage to plant; 0=no damage to plant); for pest or weed control at 62.5 g/ha: 62.5 g ai/ha, 100=total damage to plant, 0=no damage to plant, read-out: plant damage rating, Morningglory, Ivy-leaved; for pest or weed control at 250 g/ha: 250 g ai/ha, read-out: Morningglory, Ivy-leaved damage rating (100=total damage to plant; 0=no damage to plant)
Experimental: as §1, §2

[7] = system: velvetleaf (Abutilon theophrasti); test: Test G Post-Emergence Protocol; conditions: Abutilon theophrasti, post-emergence, 312 h; for pest or weed control at 15.625 g/ha: 15.625 g ai/ha, evaluated after 13 days (100=total damage to plant; 0=no damage to plant), read-out: Velvetleaf damage rating; for pest or weed control at 62.5 g/ha: 62.5 g ai/ha, read-out: Velvetleaf damage rating (100=total damage to plant; 0=no damage to plant); for pest or weed control at 62.5 g/ha / pest or weed control at 250 g/ha: evaluated after 13 days; for pest or weed control at 250 g/ha: 250 g ai/ha, read-out: damage to plant, Velvetleaf (100=total damage to plant; 0=no damage to plant)
Experimental: as §1, with “8 days” for “one day”
as §2

[8] = system: redroot pigweed (Amaranthus retroflexus); test: Test G Post-Emergence Protocol; conditions: Amaranthus retroflexus, post-emergence, 312 h; for pest or weed control at 15.625 g/ha: 15.625 g ai/ha, evaluated after 13 days (100=total damage to plant; 0=no damage to plant), read-out: Pigweed, Redroot damage rating; for pest or weed control at 62.5 g/ha: 62.5 g ai/ha, read-out: Pigweed, Redroot damage rating (100=total damage to plant; 0=no damage to plant); for pest or weed control at 62.5 g/ha / pest or weed control at 250 g/ha: evaluated after 13 days; for pest or weed control at 250 g/ha: 250 g ai/ha, read-out: damage to plant, Pigweed, Redroot (100=total damage to plant; 0=no damage to plant)
Experimental: as §1, with “8 days” for “one day”
as §2

[9] = system: barnyardgrass (Echinochloa crus-galli); test: Test G Post-Emergence Protocol; conditions: Echinochloa crus-galli, post-emergence, 312 h; for pest or weed control at 15.625 g/ha: 15.625 g ai/ha, evaluated after 13 days (100=total damage to plant; 0=no damage to plant), read-out: Barnyardgrass damage rating; for pest or weed control at 62.5 g/ha: 62.5 g ai/ha, read-out: Barnyardgrass damage rating (100=total damage to plant; 0=no damage to plant); for pest or weed control at 62.5 g/ha / pest or weed control at 250 g/ha: evaluated after 13 days; for pest or weed control at 250 g/ha: 250 g ai/ha, read-out: damage to plant, Barnyardgrass (100=total damage to plant; 0=no damage to plant)
Experimental: as §1, with “8 days” for “one day”
as §2

corn (Zea mays) [10] = test: Test G Post-Emergence Protocol; conditions: Zea mays, post-emergence, 312 h; for plant injury at 15.625 g/ha: 15.625 g ai/ha, evaluated after 13 days (100=total damage to plant; 0=no damage to plant), read-out: Corn damage rating; for plant injury at 62.5 g/ha: 62.5 g ai/ha, read-out: Corn damage rating (100=total damage to plant; 0=no damage to plant); for plant injury at 62.5 g/ha / plant injury at 250 g/ha: evaluated after 13 days; for plant injury at 250 g/ha: 250 g ai/ha, read-out: damage to plant, Corn (100=total damage to plant; 0=no damage to plant)
Experimental: as §1, with “8 days” for “one day”
as §2

[11] = system: giant foxtail (Setaria faberi); test: Test G Post-Emergence Protocol; conditions: Setaria faberi, post-emergence, 312 h; for pest or weed control at 15.625 g/ha: 15.625 g ai/ha, evaluated after 13 days (100=total damage to plant; 0=no damage to plant), read-out: Foxtail, Giant damage rating; for pest or weed control at 62.5 g/ha: 62.5 g ai/ha, read-out: Foxtail, Giant damage rating (100=total damage to plant; 0=no damage to plant); for pest or weed control at 62.5 g/ha / pest or weed control at 250 g/ha: evaluated after 13 days; for pest or weed control at 250 g/ha: 250 g ai/ha, read-out: damage to plant, Foxtail, Giant (100=total damage to plant; 0=no damage to plant)
Experimental: as §1, with “8 days” for “one day”
as §2

[12] = system: ivy-leaved morning glory (Ipomoea hederacea); test: Test G Post-Emergence Protocol; conditions: Ipomoea, post-emergence, 312 h; for pest or weed control at 15.625 g/ha: 15.625 g ai/ha, evaluated after 13 days (100=total damage to plant; 0=no damage to plant), read-out: Morningglory, Ivy-leaved damage rating; for pest or weed control at 62.5 g/ha: 62.5 g ai/ha, read-out: Morningglory, Ivy-leaved damage rating (100=total damage to plant; 0=no damage to plant); for pest or weed control at 62.5 g/ha / pest or weed control at 250 g/ha: evaluated after 13 days; for pest or weed control at 250 g/ha: 250 g ai/ha, read-out: damage to plant, Morningglory, Ivy-leaved (100=total damage to plant; 0=no damage to plant)
Experimental: as §1, with “8 days” for “one day”
as §2

Compound	pest or weed control at 15.625 g/ha [1] [%]	pest or weed control at 62.5 g/ha [1] [%]	pest or weed control at 250 g/ha [1] [%]	pest or weed control at 15.625 g/ha [2] [%]	pest or weed control at 62.5 g/ha [2] [%]	pest or weed control at 250 g/ha [2] [%]	pest or weed control at 15.625 g/ha [3] [%]	pest or weed control at 62.5 g/ha [3] [%]	pest or weed control at 250 g/ha [3] [%]	plant injury at 15.625 g/ha (corn (Zea mays) [4]) [%]	plant injury at 62.5 g/ha (corn (Zea mays) [4]) [%]	plant injury at 250 g/ha (corn (Zea mays) [4]) [%]	pest or weed control at 15.625 g/ha [5] [%]	pest or weed control at 62.5 g/ha [5] [%]	pest or weed control at 250 g/ha [5] [%]	pest or weed control at 15.625 g/ha [6] [%]	pest or weed control at 62.5 g/ha [6] [%]	pest or weed control at 250 g/ha [6] [%]	pest or weed control at 15.625 g/ha [7] [%]	pest or weed control at 62.5 g/ha [7] [%]	further results
CN1C[C@@H](c2ccc(C(F)(F)F)cc2)[C@@](O)(C(=O)Nc2cccc(F)c2F)C1=O (racemic) [Compound 1403]	0	0	0	0	0	0	0	0	0	0	0	0	0	0	0	0	0	0	0	0	pest or weed control at 250 g/ha [7]: 0%; pest or weed control at 15.625 g/ha [8]: 10%; pest or weed control at 62.5 g/ha [8]: 10%; pest or weed control at 250 g/ha [8]: 10%; pest or weed control at 15.625 g/ha [9]: 0%; pest or weed control at 62.5 g/ha [9]: 0%; pest or weed control at 250 g/ha [9]: 10%; plant injury at 15.625 g/ha (corn (Zea mays) [10]): 10%; plant injury at 62.5 g/ha (corn (Zea mays) [10]): 10%; plant injury at 250 g/ha (corn (Zea mays) [10]): 20%; pest or weed control at 15.625 g/ha [11]: 0%; pest or weed control at 62.5 g/ha [11]: 0%; pest or weed control at 250 g/ha [11]: 0%; pest or weed control at 15.625 g/ha [12]: 0%; pest or weed control at 62.5 g/ha [12]: 0%; pest or weed control at 250 g/ha [12]: 0%
Cc1ccc([C@H]2CN(C)C(=O)[C@@H]2C(=O)Nc2ccccc2F)cc1Cl (racemic) [Compound 1420]	0	0	0	0	0	0	60	70	80	0	50	70	70	80	80	0	0	0	0	0	pest or weed control at 250 g/ha [7]: 10%; pest or weed control at 15.625 g/ha [8]: 0%; pest or weed control at 62.5 g/ha [8]: 0%; pest or weed control at 250 g/ha [8]: 20%; pest or weed control at 15.625 g/ha [9]: 10%; pest or weed control at 62.5 g/ha [9]: 40%; pest or weed control at 250 g/ha [9]: 40%; plant injury at 15.625 g/ha (corn (Zea mays) [10]): 10%; plant injury at 62.5 g/ha (corn (Zea mays) [10]): 40%; plant injury at 250 g/ha (corn (Zea mays) [10]): 60%; pest or weed control at 15.625 g/ha [11]: 50%; pest or weed control at 62.5 g/ha [11]: 60%; pest or weed control at 250 g/ha [11]: 60%; pest or weed control at 15.625 g/ha [12]: 0%; pest or weed control at 62.5 g/ha [12]: 10%; pest or weed control at 250 g/ha [12]: 0%
